In patent publication US20080194611A1, “Modulation of Cell Barrier Dysfunction” (priority 2005, published 2008):

Key:
[1] = tested on: PA-I lectin/adhesin expression in P. aeruginosa 27853/PLL-EGFP
[2] = cited from earlier work
[3] = tested on: Human pulmonary microvascular endothelial cell; format: cell-based
[4] = target: T1, receptor tyrosine phosphatase mu (RPTPμ) (Homo sapiens, UniProt P28827); assay: RPTPμ tyrosine phosphatase activity assay; format: biochemical; conditions: treatment of HPMVEC
T1 construct: Treated or untreated HPAEC lysates and/or immunoprecipitated RPTPμ were analyzed for tyrosine phosphatase activity; host or cells: human pulmonary endothelial cells (HPMVEC, 'HPAEC')
T1 sequence (P28827 21-1452): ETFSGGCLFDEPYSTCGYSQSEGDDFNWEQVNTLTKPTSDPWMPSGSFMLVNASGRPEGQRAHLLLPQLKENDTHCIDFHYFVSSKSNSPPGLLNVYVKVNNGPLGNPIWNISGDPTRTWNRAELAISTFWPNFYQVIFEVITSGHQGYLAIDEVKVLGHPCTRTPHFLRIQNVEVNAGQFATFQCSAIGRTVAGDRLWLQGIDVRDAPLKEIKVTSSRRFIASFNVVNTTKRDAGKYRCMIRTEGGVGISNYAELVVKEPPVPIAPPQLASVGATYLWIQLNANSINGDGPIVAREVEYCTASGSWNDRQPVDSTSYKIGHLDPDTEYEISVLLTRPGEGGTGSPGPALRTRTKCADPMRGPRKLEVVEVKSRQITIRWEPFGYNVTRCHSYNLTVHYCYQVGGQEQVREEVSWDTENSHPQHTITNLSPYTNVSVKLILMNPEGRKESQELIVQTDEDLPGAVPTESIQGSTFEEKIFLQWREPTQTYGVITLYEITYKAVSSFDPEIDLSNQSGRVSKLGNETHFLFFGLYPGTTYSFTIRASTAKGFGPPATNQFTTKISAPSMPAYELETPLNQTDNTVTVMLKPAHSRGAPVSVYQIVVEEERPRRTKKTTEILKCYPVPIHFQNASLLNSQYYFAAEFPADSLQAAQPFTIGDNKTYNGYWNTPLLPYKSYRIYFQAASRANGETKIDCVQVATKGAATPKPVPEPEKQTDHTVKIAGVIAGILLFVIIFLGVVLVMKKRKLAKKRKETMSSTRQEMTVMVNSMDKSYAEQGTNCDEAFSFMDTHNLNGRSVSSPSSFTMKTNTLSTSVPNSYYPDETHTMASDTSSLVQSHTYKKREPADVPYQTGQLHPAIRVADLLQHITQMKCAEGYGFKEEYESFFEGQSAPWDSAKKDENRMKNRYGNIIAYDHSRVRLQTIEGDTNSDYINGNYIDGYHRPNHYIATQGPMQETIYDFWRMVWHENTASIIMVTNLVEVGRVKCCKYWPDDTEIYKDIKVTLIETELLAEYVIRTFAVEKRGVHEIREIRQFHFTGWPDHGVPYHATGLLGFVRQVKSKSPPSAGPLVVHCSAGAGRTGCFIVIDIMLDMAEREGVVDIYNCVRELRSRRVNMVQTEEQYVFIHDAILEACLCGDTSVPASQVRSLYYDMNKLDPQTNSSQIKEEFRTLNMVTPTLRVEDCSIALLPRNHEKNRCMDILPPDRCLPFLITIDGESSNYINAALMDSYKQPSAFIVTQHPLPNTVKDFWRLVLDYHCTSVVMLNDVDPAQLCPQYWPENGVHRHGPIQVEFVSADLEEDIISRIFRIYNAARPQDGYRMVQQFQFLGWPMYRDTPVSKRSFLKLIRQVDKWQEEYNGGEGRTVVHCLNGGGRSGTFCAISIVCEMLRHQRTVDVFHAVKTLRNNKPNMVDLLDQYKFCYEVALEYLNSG

S1P3 receptor = assay: Tyrosine phosphorylation (transactivation) of the S1P3 receptor; format: cell-based, Human
[5] = in vivo; cited from earlier work
[6] = tested on: total endothelial cell tyrosine phosphatase activity; assay: Total cellular tyrosine phosphatase activity assay; format: cell-based, Human
[7] = methadone maintenance patients; mean dose 0.1 mg/kg intravenously; cited from earlier work
[8] = intravenously applied; cited from earlier work
P. aeruginosa PA27853 = format: in vivo, mice; conditions: slow release morphine pellets; daily 1×10^8 cfu/ml PA27853
[9] = tested on: membrane protein fractions of P. aeruginosa; assay: Binding of morphine to P. aeruginosa membrane protein; parameters: species or system Pseudomonas aeruginosa
[10] = tested on: PA-I lectin/adhesin expression in P. aeruginosa PA27853 and PAO1

For `C[N+]1(CC2CC2)CCC23c4c5ccc(O)c4OC2C(=O)CCC3(O)C1C5` (stereo not shown) [MNTX, N-methylnaltrexone], the “effect on morphine-induced PA-I lectin/adhesin expression” value [1] is given as “significantly attenuated”, the “lipid solubility / polarity” value [2] is given as “greater polarity and lower lipid solubility” and the “MNTX protection from thrombin- and LPS-induced disruption with mOP-R silenced (siRNA)” value [3] is given as “little effect”. For the same compound, the “MNTX protection with RPTPμ silenced (siRNA)” value [3] was “inhibited the protective effects of MNTX”, the “MNTX protection with S1P3 receptor silenced (siRNA)” value [3] was “inhibited” and the “dose dependence of barrier protective effects” value [3] was “Decreasing the dose of MNTX below 0.1 μM attenuated its barrier protective effects”. For the same compound, the “effect on LPS-induced endothelial cell barrier disruption” value [3] was “attenuated endothelial cell barrier disruption”, the “effect on MS- and DAMGO-induced endothelial cell barrier disruption” value [3] was “blocked” and the “effect on S1P barrier enhancement” value [3] was “increased the sustained endothelial cell barrier-enhancing effect”. The “effect on ionomycin-induced endothelial cell barrier disruption” value [3] was “but not from the Ca^2+ ionophore, ionomycin”, the “effect on thrombin-induced endothelial cell barrier disruption” value [3] was “attenuated endothelial cell barrier disruption” and the “RPTPμ tyrosine phosphatase activity” value [4] was “enhanced RPTPμ tyrosine phosphatase activity”. For the same compound, the “Src tyrosine phosphorylation of isolated S1P3 receptor, in vitro” value (S1P3 receptor; RPTPμ from MNTX-treated (1 hour) endothelial cells) was “blocked Src tyrosine phosphorylation of the S1P3 receptor”, the “effect on agonist-induced S1P3 receptor transactivation” value (S1P3 receptor; pre-treatment) was “completely blocked” and the “crossing of the blood-brain barrier” value [5] was “does not cross the blood-brain barrier”. For the same compound, the “total endothelial cell tyrosine phosphatase activity” value [6] was “increased total endothelial cell tyrosine phosphatase activity”, the “MNTX-mediated increase of total tyrosine phosphatase activity with RPTPμ silenced” value ([6]; siRNA) was “significantly attenuated” and the mean plasma levels [7] was 162 ng/mL.
In the case of `CN1CC[C@]23c4c5ccc(O)c4O[C@H]2[C@@H](O)C=C[C@H]3[C@H]1C5` [morphine], the “concentration accumulated at tissue sites such as the intestinal mucosa” value [8] is listed as at most 100 µM, the “effect of agonist alone on endothelial cell barrier function (TER)” value [3] is listed as “induced endothelial cell barrier disruption in a dose-dependent manner” and the “mice developing severe sepsis” value (P. aeruginosa PA27853) is listed as 4/4. The mortality (P. aeruginosa PA27853) was “significant mortality”, the “binding to membrane protein fractions” value [9] was “binds to membrane protein fractions” and the “increase in PA-I expression” value [10] was “four-fold”. The “response to express PA-I” value [10] was “induce a robust response”.
